# Measured values from paper PMC5697638, “Identification of a Potent Phosphoinositide 3‐Kinase Pan Inhibitor Displaying a Strategic Carboxylic Acid Group and Development of Its Prodrugs” (Chemmedchem, 2017).
# What was measured:
# [1] = target: T1, human PI3Kα (PIK3CA/PIK3R1) (Homo sapiens, UniProt P42336); assay: lipid kinase assay (ADP-Glo), PI3Kα; assay type: biochemical
# T1 construct: purchased ProQinase, Germany 1161‐1165‐1
# Procedure: (§1) In vitro selection, lipid kinase assay: To determine the inhibitory activity of the new molecular entities on PI3K enzyme, a lipid kinase assay was performed: recombinant proteins (30 ng), human PI3Kα (PIK3CA/PIK3R1, #1161‐1165‐1 ProQinase–Germany), hPI3Kβ (PIK3CB wt/PIK3R1, #1168‐1165‐1 ProQinase, Germany), hPI3Kγ (PIK3CG, #1163‐0000‐1 ProQinase, Germany), hPI3Kδ (PIK3CD/PIK3R1, #1162–1165‐1 ProQinase, Germany), hPI3K‐C2α (PIK3C2A, #14‐906 Merck Millipore_Merck KGaA, Germany), hPI3K‐C2β (PIK3C2B, #14‐907 Merck Millipore_Merck KGaA, Germany), hPI3K‐c2γ (PIK3C2G, #1207‐0000‐1 ProQinase, Germany), and hVps34 (PIK3C3, #1160‐0000‐1 ProQinase, Germany), were incubated in kinase buffer {12.5 μL; 20 mM Tris‐HCl pH 7.5, 10 mM MgCl2, 10 μM ATP, 0.05 mg mL^−1 BSA, 0.5 mM EDTA, 5 mM HEPES pH 7.5, for PI3Kα,PI3Kβ, PI3Kγ, PI3Kδ, PI3KC‐2α, and PI3KC‐2γ; 15 mM MnCl2, 5 mM EGTA, 100 μM ATP, 50 mM HEPES pH 7.5, 100 mM NaCl, and 0.03 % CHAPS for PI3K‐C2β and VPS34 {BSA=bovine serum albumin; EDTA=ethylenediaminetetraacetic acid; HEPES=4‐(2‐hydroxyethyl)‐1‐piperazineethanesulfonic acid; EGTA=ethylene glycol‐bis(2‐aminoethylether)‐N,N,N′,N′‐tetraacetic acid; CHAPS=3‐[(3‐cholamidopropyl)dimethylammonio]‐1‐propanesulfonate}. In the reaction, the ATP concentration used for different PI3Ks was defined on the basis of the Michaelis–Menten kinetics of each enzyme, provided by the supplier. Reaction was performed in presence of 0.5 mg mL^−1 lipid micelles (1:1 phosphatidylinositol/phosphatidylserine) and in the absence (DMSO alone) or presence of increasing concentrations of each compound (from 0.1 nM to 30 μM). The mixture was kept at room temperature (RT) for 30 min for PI3Kα, PI3Kβ, PI3Kγ, PI3Kδ, PI3KC‐2α, and PI3KC‐2γ and for 1 h for PI3K‐C2β and PI3K‐C3. The amount of ADP produced in the reaction was measured by using the ADP‐Glo Kinase Assay kit from Promega (#V9102) and a luminescence reader (Glomax multi detection system, Promega, model number 9301‐010).
# (§2) The residual PI3K lipid kinase activity in the presence of each molecule at different concentrations was related to the control, intended as the recombinant protein in the presence of DMSO alone and was expressed as a percentage. To derive the IC50 value, all data (% of lipid kinase activity) were plotted on a dose–response curve (Graph Pad software), and the IC50 was calculated by using nonlinear regression fit (equation [log agonist] versus response).
# [2] = system: PI3K/Akt signaling in NIH3T3 cells; assay: insulin-stimulated Akt phosphorylation, Western blot, NIH3T3 cells; assay type: cell-based; settings: 1 μM insulin for 5 min, immunoblot
# Procedure: Figure 8 Treatment with 64 prodrug inhibited PI3K/Akt signaling. NIH3T3 cells were […] for 12 h and were treated with the indicated concentrations of 37 and 64. Cells were next stimulated with 1 μM insulin for 5 min, and total cell lysates were prepared. Immunoblot analysis was conducted for the expression levels of p‐AKT and GAPDH. The immunoblot is representative of three independent experiments.
# NIH3T3 cells were seeded in a 96‐well plate and starved overnight (ON) with serum‐free DMEM high glucose GlutaMAXTM (Gibco) supplemented with 5000 U mL^−1 penicillin–streptomycin (Gibco). Cells were then incubated for 1 h with increasing concentrations of 64, 37, or DMSO. Subsequently, cells were stimulated for 5 min with 1 μM of insulin (#91077C, Sigma–Aldrich, USA). Cells were lysed and protein extracts were analyzed by western blot to assess the phosphorylation level of Akt on Ser473.
# PC3 cells = assay: PC3 cell proliferation (MTT); assay type: cell-based; design: key to Cell proliferation: active: Active: able to reduce proliferation to an extent greater than 50 %; inactive: able to reduce proliferation to an extent less than 50 %
# Procedure: The biological activity of each prodrug was tested by analyzing their ability to decrease PC3 proliferation as a rapid test to evaluate the PI3Ks inhibitory activity after hydrolysis in a cell‐based assay. […] The choice of using such a cut‐off was due to the intent to identify rapidly which prodrug could be hydrolyzed in the assay to release the active compound. As expected, a good correlation between rate of hydrolysis and cellular activity was observed, and esters 64–68 and 70–73 were determined to be good candidates for topical use. We decided to focus our attention on ester 64, as its half‐life was a good compromise for a prodrug. The EC50 value of this ester was then evaluated on PC3 cells, and a value of (2.3±0.8) μM was obtained.
# Cell proliferation: PC3 cell proliferation was measured with a 3‐(4,5‐dimethyl thiazol‐2‐yl)‐2,5‐diphenyltetrazolium bromide (MTT)‐based colorimetric assay (#11 465 007 001 Roche Diagnostic GmbH, Germany). PC3 cells were seeded in a 96‐well plate at a concentration of 10^4 cells mL^−1. PC3 cells were treated for 72 h with increasing concentrations of 64, and MTT was added. After ON solubilization of the MTT metabolite, formazan, the absorbance (λ=550–600 nm absorbance, with a reference wavelength of 650 nm) of each well was read in a multi‐well reader (Glomax multi detection system, Promega, model number 9301‐010). The percentage of proliferating cells was calculated by relating each absolute value to the control intended as PC3 cells treated with DMSO alone. An IC50 value was then derived by plotting all data on a dose–response curve (Graph Pad software) by using nonlinear regression fit (equation [log agonist] versus response).
# [3] = target: T2, hPI3Kβ (PIK3CB wt/PIK3R1) (Homo sapiens, UniProt P42338); assay: lipid kinase assay (ADP-Glo), PI3Kβ; assay type: biochemical
# T2 construct: purchased ProQinase, Germany 1168‐1165‐1
# Procedure: as §1, §2
# hPI3K‐C2β (PIK3C2B) = hPI3K‐C2β (PIK3C2B) (Homo sapiens, UniProt O00750); assay: lipid kinase assay (ADP-Glo), PI3K-C2β; assay type: biochemical; settings: Table 2; 100 μM ATP; read-out: IC50 PI3Kc2β
# Procedure: as §1, with “Reaction was performed in presence of 0.5 mg mL^−1 lipid micelles (1:1 phosphatidylinositol/phosphatidylserine) and in the absence (DMSO alone) or presence of increasing concentrations of each compound (from 0.1 nM to 30 μM). The mixture was kept at room temperature (RT) for 30 min for PI3Kα, PI3Kβ, PI3Kγ, PI3Kδ, PI3KC‐2α, and PI3KC‐2γ and for 1 h for PI3K‐C2β and PI3K‐C3. The amount of ADP produced in the reaction was measured by using the ADP‐Glo Kinase Assay kit from Promega (#V9102) and a luminescence reader (Glomax multi detection system, Promega, model number 9301‐010).” left out
# hVps34 (PIK3C3) = target: T3, hVps34 (PIK3C3) (Homo sapiens, UniProt Q8NEB9); assay: lipid kinase assay (ADP-Glo), PI3K-C3; assay type: biochemical; settings: Table 2; mean of at least three determinations, 95 % confidence intervals; read-out: IC50 PI3Kc3
# T3 construct: purchased ProQinase, Germany 1160‐0000‐1
# Procedure: as §1, with “Reaction was performed in presence of 0.5 mg mL^−1 lipid micelles (1:1 phosphatidylinositol/phosphatidylserine) and in the absence (DMSO alone) or presence of increasing concentrations of each compound (from 0.1 nM to 30 μM). The mixture was kept at room temperature (RT) for 30 min for PI3Kα, PI3Kβ, PI3Kγ, PI3Kδ, PI3KC‐2α, and PI3KC‐2γ and for 1 h for PI3K‐C2β and PI3K‐C3. The amount of ADP produced in the reaction was measured by using the ADP‐Glo Kinase Assay kit from Promega (#V9102) and a luminescence reader (Glomax multi detection system, Promega, model number 9301‐010).” left out
# T1 sequence (P42336 whole entry): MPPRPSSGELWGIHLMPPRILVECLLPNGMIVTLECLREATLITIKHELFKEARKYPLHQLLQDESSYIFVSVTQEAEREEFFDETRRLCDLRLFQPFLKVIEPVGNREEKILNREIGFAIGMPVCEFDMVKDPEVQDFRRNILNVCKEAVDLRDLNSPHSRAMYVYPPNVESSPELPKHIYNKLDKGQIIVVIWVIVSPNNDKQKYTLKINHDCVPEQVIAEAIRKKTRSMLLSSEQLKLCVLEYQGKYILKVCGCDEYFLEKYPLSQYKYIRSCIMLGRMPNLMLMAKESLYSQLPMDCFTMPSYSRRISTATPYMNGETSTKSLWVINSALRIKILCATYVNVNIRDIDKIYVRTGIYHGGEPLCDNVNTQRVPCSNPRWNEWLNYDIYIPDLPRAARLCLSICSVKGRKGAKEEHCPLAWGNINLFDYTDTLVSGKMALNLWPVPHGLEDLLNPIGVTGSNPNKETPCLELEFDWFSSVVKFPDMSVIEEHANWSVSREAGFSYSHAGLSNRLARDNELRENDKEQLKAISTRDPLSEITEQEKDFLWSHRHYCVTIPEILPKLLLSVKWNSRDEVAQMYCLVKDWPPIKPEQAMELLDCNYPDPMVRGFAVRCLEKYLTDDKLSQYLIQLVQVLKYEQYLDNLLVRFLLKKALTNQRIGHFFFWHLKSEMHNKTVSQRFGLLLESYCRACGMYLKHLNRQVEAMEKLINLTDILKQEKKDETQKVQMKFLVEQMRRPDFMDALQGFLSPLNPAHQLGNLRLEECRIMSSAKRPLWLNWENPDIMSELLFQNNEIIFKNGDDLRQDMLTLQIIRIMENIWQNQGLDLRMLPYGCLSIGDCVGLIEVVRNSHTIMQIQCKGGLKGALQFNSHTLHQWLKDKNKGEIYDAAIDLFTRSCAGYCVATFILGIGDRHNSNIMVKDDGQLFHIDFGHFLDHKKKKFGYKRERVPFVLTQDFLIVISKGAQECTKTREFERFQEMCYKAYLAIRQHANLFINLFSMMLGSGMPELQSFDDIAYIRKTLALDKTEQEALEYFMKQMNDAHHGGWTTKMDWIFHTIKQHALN
# T1 sequence (P27986 whole entry partner): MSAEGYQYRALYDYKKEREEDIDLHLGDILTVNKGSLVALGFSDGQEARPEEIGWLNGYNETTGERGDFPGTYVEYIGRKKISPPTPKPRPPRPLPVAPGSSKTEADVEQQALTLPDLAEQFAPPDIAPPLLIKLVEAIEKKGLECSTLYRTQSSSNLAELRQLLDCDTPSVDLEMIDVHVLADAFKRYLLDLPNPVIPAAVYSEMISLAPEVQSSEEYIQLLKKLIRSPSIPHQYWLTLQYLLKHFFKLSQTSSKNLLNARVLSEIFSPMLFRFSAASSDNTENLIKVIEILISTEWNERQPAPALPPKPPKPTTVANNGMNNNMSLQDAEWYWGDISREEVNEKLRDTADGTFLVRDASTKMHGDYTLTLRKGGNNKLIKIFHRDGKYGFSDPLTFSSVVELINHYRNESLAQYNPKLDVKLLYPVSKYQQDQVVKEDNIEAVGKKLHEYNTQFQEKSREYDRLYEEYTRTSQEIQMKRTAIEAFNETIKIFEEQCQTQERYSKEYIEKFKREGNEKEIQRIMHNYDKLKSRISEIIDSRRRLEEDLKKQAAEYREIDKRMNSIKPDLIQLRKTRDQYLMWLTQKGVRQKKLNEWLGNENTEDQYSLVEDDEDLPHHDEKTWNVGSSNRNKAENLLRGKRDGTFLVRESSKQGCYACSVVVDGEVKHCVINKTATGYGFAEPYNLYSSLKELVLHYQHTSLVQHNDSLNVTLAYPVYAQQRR
# T2 sequence (P42338 whole entry): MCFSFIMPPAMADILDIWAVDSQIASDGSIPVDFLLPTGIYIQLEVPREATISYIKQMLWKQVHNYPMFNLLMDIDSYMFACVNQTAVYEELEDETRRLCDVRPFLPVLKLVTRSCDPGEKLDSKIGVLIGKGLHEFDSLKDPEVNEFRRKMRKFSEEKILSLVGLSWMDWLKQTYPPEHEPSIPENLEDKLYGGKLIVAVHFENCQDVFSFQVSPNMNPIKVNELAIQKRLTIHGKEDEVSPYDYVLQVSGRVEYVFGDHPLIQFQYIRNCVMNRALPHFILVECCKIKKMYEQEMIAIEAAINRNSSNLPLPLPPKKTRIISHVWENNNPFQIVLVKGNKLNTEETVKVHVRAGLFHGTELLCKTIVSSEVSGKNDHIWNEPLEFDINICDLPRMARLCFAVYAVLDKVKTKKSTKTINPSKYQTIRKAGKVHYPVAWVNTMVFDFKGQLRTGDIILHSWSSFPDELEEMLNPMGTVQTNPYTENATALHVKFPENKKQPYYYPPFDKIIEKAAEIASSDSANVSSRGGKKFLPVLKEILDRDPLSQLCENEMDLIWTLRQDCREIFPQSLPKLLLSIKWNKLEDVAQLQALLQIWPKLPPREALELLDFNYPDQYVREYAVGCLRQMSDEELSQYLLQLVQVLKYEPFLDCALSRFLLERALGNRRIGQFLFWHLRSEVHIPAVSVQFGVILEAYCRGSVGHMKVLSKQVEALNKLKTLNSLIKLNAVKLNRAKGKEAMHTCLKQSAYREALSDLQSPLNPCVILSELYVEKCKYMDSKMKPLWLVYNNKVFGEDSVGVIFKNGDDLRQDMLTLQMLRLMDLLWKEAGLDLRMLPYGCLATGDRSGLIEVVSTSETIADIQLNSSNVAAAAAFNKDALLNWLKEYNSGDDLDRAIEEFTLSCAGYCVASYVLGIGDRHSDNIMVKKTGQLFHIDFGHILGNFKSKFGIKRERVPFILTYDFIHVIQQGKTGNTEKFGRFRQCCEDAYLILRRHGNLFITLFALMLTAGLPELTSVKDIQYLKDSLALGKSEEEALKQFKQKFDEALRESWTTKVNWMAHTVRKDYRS
# T2 sequence (P27986 whole entry partner): as the sequence (P27986 whole entry partner) above
# T3 sequence (Q8NEB9 whole entry): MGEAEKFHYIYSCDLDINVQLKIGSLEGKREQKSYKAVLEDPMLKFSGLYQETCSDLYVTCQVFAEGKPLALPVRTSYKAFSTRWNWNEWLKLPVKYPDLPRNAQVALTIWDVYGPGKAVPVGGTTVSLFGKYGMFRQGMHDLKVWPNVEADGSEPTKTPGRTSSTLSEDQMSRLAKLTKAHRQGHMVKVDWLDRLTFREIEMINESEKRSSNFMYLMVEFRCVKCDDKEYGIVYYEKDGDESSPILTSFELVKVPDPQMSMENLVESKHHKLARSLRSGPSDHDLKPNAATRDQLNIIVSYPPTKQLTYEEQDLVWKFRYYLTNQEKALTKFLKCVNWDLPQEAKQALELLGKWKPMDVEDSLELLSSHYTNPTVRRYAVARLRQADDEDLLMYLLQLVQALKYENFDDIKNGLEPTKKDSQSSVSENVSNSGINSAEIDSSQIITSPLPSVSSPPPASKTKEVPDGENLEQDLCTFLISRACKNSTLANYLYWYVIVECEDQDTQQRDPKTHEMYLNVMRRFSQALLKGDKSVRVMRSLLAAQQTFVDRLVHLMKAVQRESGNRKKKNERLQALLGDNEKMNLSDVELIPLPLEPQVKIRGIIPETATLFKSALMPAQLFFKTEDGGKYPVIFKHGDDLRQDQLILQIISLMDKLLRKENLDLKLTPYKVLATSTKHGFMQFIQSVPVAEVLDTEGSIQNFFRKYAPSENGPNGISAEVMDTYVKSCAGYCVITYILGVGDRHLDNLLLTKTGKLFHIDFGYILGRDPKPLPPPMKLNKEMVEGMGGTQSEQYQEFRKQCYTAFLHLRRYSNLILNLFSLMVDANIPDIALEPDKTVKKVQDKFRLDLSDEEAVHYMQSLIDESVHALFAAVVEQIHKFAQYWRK
SMILES,inhibition of PI3Kα activity ([1]; at 100 nM),Akt phosphorylation after insulin stimulation [2],effect on proliferation of PC3 cells (PC3 cells; 72 h of treatment),"EC50 (PC3 cells; Homo sapiens, PC-3, PC3 proliferation, MTT, 72 h) [nM]","Cell proliferation (PC3 cells; PC3 cells, 10 μM of each prodrug)","IC50 ([1]; Table 2, mean of at least three determinations, 95 % confidence intervals, read-out: IC50 PI3Kα) [nM]","inhibition at 1 µM ([1]; determined at 1 μM, at least triplicate, read-out: Inhibitory activity, PI3K isoform α) [%]","IC50 ([3]; Table 2, mean of at least three determinations, 95 % confidence intervals) [nM]","inhibition at 1 µM ([3]; determined at 1 μM, at least triplicate, read-out: Inhibitory activity, PI3K isoform β) [%]",IC50 (hPI3K‐C2β (PIK3C2B)) [nM],IC50 (hVps34 (PIK3C3)) [nM]
"COC(=O)c1cccc(Cn2cc(-c3cccc4c(=O)cc(N5CCOCC5)[nH]c34)nn2)c1 [Compound 64, Methyl 3‐{[4‐(2‐morpholino‐4‐oxo‐1,4‐dihydroquinolin‐8‐yl)‐1H‐1,2,3‐triazol‐1‐yl]methyl}benzoate]",not able to inhibit PI3Kα activity,able to inhibit the PI3K‐signaling pathway in a dose‐dependent manner,dose‐dependently decreased proliferation,2300 ± 800,active,,,,,,
"O=C(O)c1cccc(Cn2cc(-c3cccc4c(=O)cc(N5CCOCC5)[nH]c34)nn2)c1 [Compound 37, 3‐{[4‐(2‐Morpholino‐4‐oxo‐1,4‐dihydroquinolin‐8‐yl)‐1H‐1,2,3‐triazol‐1‐yl]methyl}benzoic acid]",,did not decrease Akt phosphorylation,,,,18 ± 4,> 50,59 ± 15,> 50,> 20000,590 ± 200
